{
  "source": "patent US5041448A",
  "about": "“(4-piperidinylmethyl and -hetero) purines” (Janssen Pharmaceutica N.V., priority 1985, dated 1991)",
  "system": "compound 48/80-induced lethality in rats",
  "assay": "Protection of rats from compound 48/80-induced lethality",
  "format": "in vivo, rat (male, inbred Wistar strain)",
  "conditions": "male Wistar rats, s.c. or oral, one hour before 0.5 mg/kg i.v. compound 48/80, ED50 = dose protecting 50% of animals, survival after 4 hours; for ED50: Rattus norvegicus, 4 h, read-out: compound 48/80 lethality test in rats-ED50",
  "text": "Protection of rats from compound 48/80-induced lethality.\nCompound 48/80, a mixture of oligomers obtained by condensation of 4-methoxy-N-methylbenzeneethanamine and formaldehyde has been described as a potent histamine releasing agent (Int. Arch. Allergy, 13, 336 (1958)). The protection from compound 48/80-induced lethal circulatory collapse appears to be a simple way of evaluating quantitatively the antihistaminic activity of test compounds. Male rats of an inbred Wistar strain, weighing 240-260 g were used in the experiment. After overnight starvation the rats were transferred to conditioned laboratories (temp.=21±1° C., relative humidity=65±5%). The rats were treated subcutaneously or orally with a test compound or with the solvent (NaCl solution, 0.9%). One hour after treatment there was injected intravenously compound 48/80, freshly dissolved in water, at a dose of 0.5 mg/kg (0.2 ml/100 g of body weight). In control experiments, wherein 250 solvent-treated animals were injected with the standard dose of compound 48/80, not more than 2.8% of the animals survived after 4 hours. Survival after 4 hours is therefore considered to be a safe criterion of a protective effect of drug administration.\nSaid ED50 -values are the values in mg/kg body weight at which the tested compounds protect 50% of the tested animals against compound 48/80-induced lethality.",
  "data": [
    {"compound": "9-(2-furanylmethyl)-N-[1-[4-[(2-thiazolyl)amino]pentyl]-4-piperidinyl]-9H-purin-8-amine [Compound 173]", "values": [
      {"measurement": "compound 48/80 lethality test in rats-ED50", "value": 0.08, "unit": "mg/kg body weight"}
    ]},
    {"compound": "Cl.Cl.O.O.c1coc(Cn2c(NC3CCN(CC4COc5ccccc5O4)CC3)nc3cncnc32)c1", "note": "(stereo not shown) [Compound 60, N-[1-[(2,3-dihydro-1,4-benzodioxin-2-yl)methyl]-4-piperidinyl]-9-(2-furanyl-methyl)-9H-purin-8-amine dihydrochloride dihydrate]", "values": [
      {"measurement": "ED50", "value": 0.08, "unit": "mg/kg"}
    ]},
    {"compound": "Cc1ccc(Cn2c(NC3CCN(CC4COc5ccccc5O4)CC3)nc3cncnc32)o1", "note": "(stereo not shown) [Compound 61, N-[1-[(2,3-dihydro-1,4-benzodioxin-2-yl)methyl]-4-piperidinyl]-9-[(5-methyl-2-furanyl)methyl]-9H-purin-8-amine]", "values": [
      {"measurement": "ED50", "value": 0.01, "unit": "mg/kg"}
    ]},
    {"compound": "COc1ccc(CCN2CCC(Cc3nc4ncnc(O)c4n3Cc3ccc(F)cc3)CC2)cc1", "note": "[Compound 62, 7-[(4-fluorophenyl)methyl]-8-[[1-[2-(4-methoxyphenyl)ethyl]-4-piperidinyl]methyl]-7H-purin-6-ol]", "values": [
      {"measurement": "ED50", "value": 0.04, "unit": "mg/kg"}
    ]},
    {"compound": "COc1ccc(CCN2CCC(Oc3nc4cncnc4n3Cc3ccc(F)cc3)CC2)cc1", "note": "[Compound 64]", "values": [
      {"measurement": "ED50", "value": 0.08, "unit": "mg/kg"}
    ]},
    {"compound": "COc1ccc(CCN2CCC(Nc3nc4cncnc4n3Cc3ccccn3)CC2)cc1", "note": "[Compound 74, N-[1-[2-(4-methoxyphenyl)ethyl]-4-piperidinyl]-9-(2-pyridinylmethyl)-9H-purin-8-amine]", "values": [
      {"measurement": "ED50", "value": 0.01, "unit": "mg/kg"}
    ]},
    {"compound": "COc1ccc(CCN2CCC(Nc3nc4cncnc4n3Cc3ccc(F)cc3)CC2)cc1", "note": "[Compound 75]", "values": [
      {"measurement": "ED50", "value": 0.08, "unit": "mg/kg"}
    ]},
    {"compound": "COc1ccc(CCN2CCC(Nc3nc4cncnc4n3Cc3ccco3)CC2)cc1", "note": "[Compound 76]", "values": [
      {"measurement": "ED50", "value": 0.02, "unit": "mg/kg"}
    ]},
    {"compound": "COc1ccc(CCN2CCC(Nc3nc4cncnc4n3Cc3cccs3)CC2)cc1", "note": "[Compound 77]", "values": [
      {"measurement": "ED50", "value": 0.02, "unit": "mg/kg"}
    ]},
    {"compound": "COc1ccc(CCN2CCC(Nc3nc4ncncc4n3Cc3ccc(F)cc3)CC2)cc1", "note": "[Compound 78]", "values": [
      {"measurement": "ED50", "value": 0.04, "unit": "mg/kg"}
    ]},
    {"compound": "COc1ccc(CCN2CCC(Nc3nc4cncnc4n3Cc3ccc(C)o3)CC2)cc1", "note": "[Compound 79]", "values": [
      {"measurement": "ED50", "value": 0.04, "unit": "mg/kg"}
    ]},
    {"compound": "COc1ccc(CCN2CCC(Nc3nc4cncnc4n3Cc3ccc(F)cc3)CC2)cc1", "note": "[Compound 80]", "values": [
      {"measurement": "compound 48/80 lethality test in rats-ED50", "setting": "240 min", "value": 0.04, "unit": "mg/kg body weight"}
    ]},
    {"compound": "COc1ccc(CCN2CCC(Nc3nc4cncnc4n3Cc3ccccc3)CC2)cc1", "note": "[Compound 83]", "values": [
      {"measurement": "ED50", "value": 0.08, "unit": "mg/kg"}
    ]},
    {"compound": "Cc1nc2ccccn2c(=O)c1CCN1CCC(Nc2nc3cncnc3n2Cc2cnccn2)CC1", "note": "[Compound 87, 2-methyl-3-[2-[4-[[9-(2-pyrazinylmethyl)-9H-purin-8-yl]amino]-1-piperidinyl]-ethyl]-4H-pyrido[1,2-a]pyrimidin-4-one]", "values": [
      {"measurement": "ED50", "value": 0.08, "unit": "mg/kg"}
    ]},
    {"compound": "Cc1nc2ccccn2c(=O)c1CCN1CCC(Nc2nc3cncnc3n2Cc2ccco2)CC1", "note": "[Compound 88]", "values": [
      {"measurement": "ED50", "value": 0.02, "unit": "mg/kg"}
    ]},
    {"compound": "Cc1nc2ccccn2c(=O)c1CCN1CCC(Nc2nc3cncnc3n2Cc2cccs2)CC1", "note": "[Compound 89]", "values": [
      {"measurement": "ED50", "value": 0.08, "unit": "mg/kg"}
    ]},
    {"compound": "Cc1nc2ccccn2c(=O)c1CCN1CCC(Nc2nc3cncnc3n2Cc2ccccc2)CC1", "note": "[Compound 100]", "values": [
      {"measurement": "ED50", "value": 0.02, "unit": "mg/kg"}
    ]},
    {"compound": "O=c1oc2ccccc2cc1CCN1CCC(Nc2nc3cncnc3n2Cc2ccco2)CC1", "note": "[Compound 104]", "values": [
      {"measurement": "ED50", "value": 0.04, "unit": "mg/kg"}
    ]},
    {"compound": "O=c1oc2ccccc2cc1CCN1CCC(Nc2nc3cncnc3n2Cc2ccccn2)CC1", "note": "[Compound 106]", "values": [
      {"measurement": "ED50", "value": 0.08, "unit": "mg/kg"}
    ]},
    {"compound": "Cc1ccc(Cn2c(NC3CCN(CCc4cc5ccccc5oc4=O)CC3)nc3cncnc32)o1", "note": "[Compound 107]", "values": [
      {"measurement": "ED50", "value": 0.02, "unit": "mg/kg"}
    ]},
    {"compound": "O=C(O)/C=C/C(=O)O.O=C(O)/C=C/C(=O)O.O=c1[nH]c2ccccc2n1CCCN1CCC(Cc2nc3cncnc3n2Cc2ccc(F)cc2)CC1", "note": "[Compound 114, 1-[3-[4-[[9-[(4-fluorophenyl)methyl]-9H-purine-8-yl]methyl]-1-piperidinyl]-propyl]-1,3-dihydro-2H-benzimidazol-2-one (E)-2-butenedioate(1:2)]", "values": [
      {"measurement": "ED50", "value": 0.04, "unit": "mg/kg"}
    ]},
    {"compound": "O=c1[nH]c2ccccc2n1CCN1CCC(Nc2nc3cncnc3n2Cc2ccc(F)cc2)CC1", "note": "[Compound 115, 1-[2-[4-[[9-[(4-fluorophenyl)methyl]-9H-puri-8-yl]amino]-1-piperidinyl]ethyl]-1,3-dihydro-2H-benzimidazol-2-one]", "values": [
      {"measurement": "ED50", "value": 0.08, "unit": "mg/kg"}
    ]},
    {"compound": "Fc1ccc(Cn2c(NC3CCN(CCc4ccccn4)CC3)nc3cncnc32)cc1", "note": "[Compound 141, 9-[(4-fluorophenyl)methyl]-N-[1-[2-(2-pyridinyl)ethyl]-4-piperidinyl]-9H-purin-8-amine]", "values": [
      {"measurement": "ED50", "value": 0.01, "unit": "mg/kg"}
    ]},
    {"compound": "c1ccc(CCN2CCC(Nc3nc4cncnc4n3Cc3ccco3)CC2)nc1", "note": "[Compound 142, 9-(2-furanylmethyl)-N-[1-[2-(2-pyridinyl)ethyl]-4-piperidinyl]-9H-purin-8-amine]", "values": [
      {"measurement": "ED50", "value": 0.02, "unit": "mg/kg"}
    ]},
    {"compound": "c1ccc(CCN2CCC(Nc3nc4cncnc4n3Cc3cccs3)CC2)nc1", "note": "[Compound 143, N-[1-[2-(2-pyridinyl)ethyl]-4-piperidinyl]-9-(2-thienylmethyl)-9H-purin-8-amine]", "values": [
      {"measurement": "ED50", "value": 0.02, "unit": "mg/kg"}
    ]},
    {"compound": "c1ccc(CCN2CCC(Nc3nc4cncnc4n3Cc3ccccn3)CC2)nc1", "note": "[Compound 144, N-[1-[2-(2-pyridinyl)ethyl]-4-piperidinyl]-9-(2-pyridinylmethyl)-9H-purin-8-amine]", "values": [
      {"measurement": "ED50", "value": 0.04, "unit": "mg/kg"}
    ]},
    {"compound": "Cc1ccc(Cn2c(NC3CCN(CCc4ccccn4)CC3)nc3cncnc32)o1", "note": "[Compound 145, 9-[(5-methyl-2-furanyl)methyl]-N-[1-[2-(2-pyridinyl)ethyl]-4a-piperidinyl]-9H-purin-8-amine]", "values": [
      {"measurement": "ED50", "value": 0.01, "unit": "mg/kg"}
    ]},
    {"compound": "c1cnc(NCCN2CCC(Nc3nc4cncnc4n3Cc3ccco3)CC2)nc1", "note": "[Compound 165]", "values": [
      {"measurement": "ED50", "value": 0.02, "unit": "mg/kg"}
    ]},
    {"compound": "c1cnc(NCCN2CCC(Nc3nc4cncnc4n3Cc3cccs3)CC2)nc1", "note": "[Compound 167]", "values": [
      {"measurement": "ED50", "value": 0.08, "unit": "mg/kg"}
    ]},
    {"compound": "Cc1ccc(Cn2c(NC3CCN(CCNc4ncccn4)CC3)nc3cncnc32)o1", "note": "[Compound 168]", "values": [
      {"measurement": "ED50", "value": 0.02, "unit": "mg/kg"}
    ]},
    {"compound": "COc1ncnc2c1nc(CC1CCN(CCNc3ncccn3)CC1)n2Cc1ccc(F)cc1", "note": "[Compound 169]", "values": [
      {"measurement": "ED50", "value": 0.08, "unit": "mg/kg"}
    ]},
    {"compound": "Fc1ccc(Cn2c(CC3CCN(CCNc4ncccn4)CC3)nc3cncnc32)cc1", "note": "[Compound 171]", "values": [
      {"measurement": "ED50", "value": 0.08, "unit": "mg/kg"}
    ]},
    {"compound": "Fc1ccc(Cn2c(NC3CCN(CCNc4nccs4)CC3)nc3cncnc32)cc1", "note": "[Compound 172, 9-[(4-fluorophenyl)methyl]-N-[1-[2-(2-thiazolylamino)ethyl)-4-piperidinyl]-9H-purin-8-amine]", "values": [
      {"measurement": "ED50", "value": 0.04, "unit": "mg/kg"}
    ]},
    {"compound": "Fc1ccc(Cn2c(NC3CCN(CCNc4nc5cnccc5[nH]4)CC3)nc3cncnc32)cc1", "note": "[Compound 183, 9-[(4-fluorophenyl)methyl]-N-[1-[2-[(1H-imidazo[4,5-c]pyridin-2-yl)amino]ethyl]-4-piperidinyl]-9H-purin-8-amine (E)-2-butenedioate(1:3) monohydrate]", "values": [
      {"measurement": "ED50", "value": 0.04, "unit": "mg/kg"}
    ]}
  ]
}
